Assay results taken from ChEMBL document CHEMBL3875185, “Structure-anticonvulsant activity studies in the group of (E)-N-cinnamoyl aminoalkanols derivatives monosubstituted in phenyl ring with 4-Cl, 4-CH3 or 2-CH3” (Bioorg Med Chem, 2017).
Calls of active or inactive are those of the source. No cut-off for these calls is given here.

Tests used:
[1] = molecular target: T1, Adenosine receptor A1 (Homo sapiens) (UniProt P30542); experiment: Displacement of [3H]DPCPX from human recombinant adenosine receptor A1 expressed in CHO cells at 100 uM measured after 60 mins by scintillation counting method relative to control; format: cell-based
T1 sequence (whole entry): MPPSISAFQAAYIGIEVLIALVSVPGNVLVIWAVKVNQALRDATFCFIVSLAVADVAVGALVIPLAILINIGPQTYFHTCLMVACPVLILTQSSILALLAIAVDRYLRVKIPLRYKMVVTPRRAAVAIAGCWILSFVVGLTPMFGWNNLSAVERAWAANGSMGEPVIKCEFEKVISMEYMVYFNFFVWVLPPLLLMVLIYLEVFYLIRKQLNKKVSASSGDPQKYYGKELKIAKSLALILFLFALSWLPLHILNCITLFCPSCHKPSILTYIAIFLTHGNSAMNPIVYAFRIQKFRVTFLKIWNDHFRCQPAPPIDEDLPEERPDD

Mus musculus [2] = experiment: Anticonvulsant activity in maximal electroshock induced seizure mouse model assessed as suppression in hindlimb tonic extension at 300 mg/kg, ip measured at 0.5 hrs post dose; format: functional, organism-based
Mus musculus [3] = experiment: Neurotoxicity in mouse assessed as induction of motor impairment at 100 mg/kg, ip measured at 4 hrs post dose by rotarod method; format: toxicity, organism-based; settings: in vivo
Mus musculus [4] = experiment: Anticonvulsant activity in 6-Hz induced seizure mouse model assessed as restoration of normal activity within 10 secs from stimulation at 100 mg/kg, ip at 32 mA measured at 0.5 hrs post dose; format: functional, organism-based
Mus musculus [5] = experiment: Neurotoxicity in ip dosed mouse assessed as induction of motor impairment by measuring time to peak effect by rotarod method; format: toxicity, organism-based; settings: in vivo
[6] = Protection index, ratio of TD50 for neurotoxicity in ip dosed mouse to ED50 for ip dosed 6-Hz induced seizure mouse model at 44 mA; format: toxicity, organism-based; settings: in vivo, read-out: Ratio TD50/ED50
Rattus norvegicus [7] = experiment: Anticonvulsant activity in po dosed maximal electroshock induced seizure Sprague-Dawley rat model assessed as suppression in hindlimb tonic extension; format: functional
[8] = molecular target: Beta-1 adrenergic receptor (Homo sapiens) (UniProt P08588); experiment: Displacement of [3H]CGP 12177 from human recombinant beta1 adrenergic receptor expressed in HEK293 cells at 100 uM measured after 60 mins by scintillation counting method relative to control; format: cell-based
Chain of Beta-1 adrenergic receptor (Homo sapiens) (P08588 whole entry, looked up): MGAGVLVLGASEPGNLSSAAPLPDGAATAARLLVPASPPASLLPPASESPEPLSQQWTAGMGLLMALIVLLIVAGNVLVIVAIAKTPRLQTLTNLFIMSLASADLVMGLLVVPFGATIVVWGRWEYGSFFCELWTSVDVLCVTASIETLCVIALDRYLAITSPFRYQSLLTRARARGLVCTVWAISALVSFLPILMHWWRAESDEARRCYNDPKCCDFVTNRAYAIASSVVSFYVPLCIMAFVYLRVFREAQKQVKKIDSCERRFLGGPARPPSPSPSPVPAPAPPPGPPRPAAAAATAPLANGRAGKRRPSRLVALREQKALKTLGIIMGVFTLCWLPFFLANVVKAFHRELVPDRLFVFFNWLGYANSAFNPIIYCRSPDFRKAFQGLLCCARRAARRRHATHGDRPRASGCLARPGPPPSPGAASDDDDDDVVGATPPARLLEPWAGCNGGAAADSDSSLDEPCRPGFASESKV

Rattus norvegicus [9] = organism: Rattus norvegicus; experiment: Displacement of [3H]GABA from rat cerebral cortex GABA receptor at 100 uM
[10] = molecular target: T2, Galanin receptor type 1 (Homo sapiens) (UniProt P47211); experiment: Displacement of [125I]galanin from human recombinant GAL1 receptor expressed in HEK293 cells at 100 uM measured after 60 mins by scintillation counting method relative to control; format: cell-based
T2 sequence (whole entry): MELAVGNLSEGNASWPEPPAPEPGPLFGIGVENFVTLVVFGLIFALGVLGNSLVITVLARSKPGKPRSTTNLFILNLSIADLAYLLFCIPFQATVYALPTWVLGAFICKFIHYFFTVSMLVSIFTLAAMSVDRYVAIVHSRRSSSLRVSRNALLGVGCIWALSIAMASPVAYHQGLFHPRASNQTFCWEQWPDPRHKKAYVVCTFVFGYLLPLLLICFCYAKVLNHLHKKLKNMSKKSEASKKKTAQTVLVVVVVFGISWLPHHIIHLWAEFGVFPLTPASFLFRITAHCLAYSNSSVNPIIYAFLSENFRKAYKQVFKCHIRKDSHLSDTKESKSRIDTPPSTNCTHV

[11] = molecular target: T3, C-X-C chemokine receptor type 2 (Homo sapiens) (UniProt P25025); experiment: Displacement of [125I]IL-8 from human recombinant CXCR2 expressed in HEK293 cells at 100 uM measured after 60 mins by scintillation counting method relative to control; format: cell-based
T3 sequence (whole entry): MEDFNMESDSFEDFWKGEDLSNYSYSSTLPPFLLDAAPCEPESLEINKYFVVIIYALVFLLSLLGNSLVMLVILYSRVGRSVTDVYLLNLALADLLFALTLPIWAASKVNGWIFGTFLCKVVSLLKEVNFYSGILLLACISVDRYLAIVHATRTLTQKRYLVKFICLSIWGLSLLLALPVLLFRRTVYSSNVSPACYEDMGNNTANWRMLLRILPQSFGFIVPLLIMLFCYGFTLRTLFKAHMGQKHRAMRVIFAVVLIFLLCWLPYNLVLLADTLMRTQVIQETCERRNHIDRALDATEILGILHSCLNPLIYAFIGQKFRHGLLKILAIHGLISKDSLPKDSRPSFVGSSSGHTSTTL

[12] = molecular target: T4, Neuromedin-K receptor (Homo sapiens) (UniProt P29371); experiment: Displacement of [3H]SR 142801 from human recombinant NK3 receptor expressed in CHO cells at 100 uM measured after 120 mins by scintillation counting method relative to control; format: cell-based
T4 sequence (whole entry): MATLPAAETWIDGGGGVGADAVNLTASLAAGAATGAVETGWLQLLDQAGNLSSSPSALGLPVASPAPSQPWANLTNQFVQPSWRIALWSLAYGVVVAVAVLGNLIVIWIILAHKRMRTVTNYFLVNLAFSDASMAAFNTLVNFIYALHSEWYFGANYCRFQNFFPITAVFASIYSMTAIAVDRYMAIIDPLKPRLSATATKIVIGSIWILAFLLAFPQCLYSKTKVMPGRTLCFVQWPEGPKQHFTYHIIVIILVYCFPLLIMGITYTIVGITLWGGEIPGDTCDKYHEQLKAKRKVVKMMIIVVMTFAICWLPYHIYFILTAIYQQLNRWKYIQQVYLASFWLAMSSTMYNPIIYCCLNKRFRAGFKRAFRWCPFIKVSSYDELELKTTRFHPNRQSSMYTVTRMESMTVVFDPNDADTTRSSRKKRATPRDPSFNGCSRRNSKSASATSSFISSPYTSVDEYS

[13] = molecular target: Kappa-type opioid receptor (Rattus norvegicus) (UniProt P34975); experiment: Displacement of [3H]U 69593 from rat recombinant kappa-opioid receptor expressed in CHO cells at 100 uM measured after 60 mins by scintillation counting method relative to control; format: cell-based
Chain of Kappa-type opioid receptor (Rattus norvegicus) (P34975 whole entry): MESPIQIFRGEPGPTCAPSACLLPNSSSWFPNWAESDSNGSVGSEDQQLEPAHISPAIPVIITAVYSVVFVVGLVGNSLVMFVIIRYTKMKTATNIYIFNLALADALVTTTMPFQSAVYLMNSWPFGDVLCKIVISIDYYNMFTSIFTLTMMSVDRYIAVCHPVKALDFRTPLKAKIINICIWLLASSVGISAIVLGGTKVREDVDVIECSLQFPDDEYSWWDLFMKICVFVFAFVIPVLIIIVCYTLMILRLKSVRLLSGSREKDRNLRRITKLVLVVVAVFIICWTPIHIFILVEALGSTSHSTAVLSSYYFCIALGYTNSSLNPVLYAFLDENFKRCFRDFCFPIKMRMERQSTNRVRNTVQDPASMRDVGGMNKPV

[14] = molecular target: Prostacyclin receptor (Homo sapiens) (UniProt P43119); experiment: Displacement of [3H]iloprost from human recombinant IP receptor expressed in HEK293 cells at 100 uM measured after 60 mins by scintillation counting method relative to control; format: cell-based
Chain of Prostacyclin receptor (Homo sapiens) (P43119 whole entry): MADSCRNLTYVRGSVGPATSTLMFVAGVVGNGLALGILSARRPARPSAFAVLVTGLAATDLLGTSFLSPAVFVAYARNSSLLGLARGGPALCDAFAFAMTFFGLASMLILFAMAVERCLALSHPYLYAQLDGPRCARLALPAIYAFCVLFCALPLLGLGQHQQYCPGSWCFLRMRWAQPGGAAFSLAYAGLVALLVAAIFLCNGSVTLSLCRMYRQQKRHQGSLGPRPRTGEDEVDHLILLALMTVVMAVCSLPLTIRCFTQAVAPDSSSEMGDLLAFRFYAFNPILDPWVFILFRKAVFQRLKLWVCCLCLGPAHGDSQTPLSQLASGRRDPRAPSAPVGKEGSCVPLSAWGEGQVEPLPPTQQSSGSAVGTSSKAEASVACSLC

[15] = molecular target: 5-hydroxytryptamine receptor 2B (Homo sapiens) (UniProt P41595); experiment: Displacement of [125I]DOI from human recombinant 5HT2B receptor expressed in CHO cells at 100 uM measured after 60 mins by scintillation counting method relative to control; format: cell-based
Chain of 5-hydroxytryptamine receptor 2B (Homo sapiens) (P41595 whole entry): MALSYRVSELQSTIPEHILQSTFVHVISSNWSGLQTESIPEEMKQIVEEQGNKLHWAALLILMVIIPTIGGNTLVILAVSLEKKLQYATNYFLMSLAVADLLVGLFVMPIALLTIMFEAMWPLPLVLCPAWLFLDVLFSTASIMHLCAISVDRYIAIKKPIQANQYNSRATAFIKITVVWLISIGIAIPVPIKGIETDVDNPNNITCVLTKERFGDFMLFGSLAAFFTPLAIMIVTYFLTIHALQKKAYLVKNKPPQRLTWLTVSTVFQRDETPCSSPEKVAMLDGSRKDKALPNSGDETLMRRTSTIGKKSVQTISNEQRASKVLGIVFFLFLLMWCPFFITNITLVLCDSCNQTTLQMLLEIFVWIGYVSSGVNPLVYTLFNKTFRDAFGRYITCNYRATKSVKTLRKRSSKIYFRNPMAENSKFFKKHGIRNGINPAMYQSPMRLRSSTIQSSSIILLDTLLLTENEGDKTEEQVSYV

[16] = molecular target: 5-hydroxytryptamine receptor 7 (Homo sapiens) (UniProt P34969); experiment: Displacement of [3H]LSD from human recombinant 5HT7 receptor expressed in CHO cells at 100 uM measured after 120 mins by scintillation counting method relative to control; format: cell-based
Chain of 5-hydroxytryptamine receptor 7 (Homo sapiens) (P34969 whole entry): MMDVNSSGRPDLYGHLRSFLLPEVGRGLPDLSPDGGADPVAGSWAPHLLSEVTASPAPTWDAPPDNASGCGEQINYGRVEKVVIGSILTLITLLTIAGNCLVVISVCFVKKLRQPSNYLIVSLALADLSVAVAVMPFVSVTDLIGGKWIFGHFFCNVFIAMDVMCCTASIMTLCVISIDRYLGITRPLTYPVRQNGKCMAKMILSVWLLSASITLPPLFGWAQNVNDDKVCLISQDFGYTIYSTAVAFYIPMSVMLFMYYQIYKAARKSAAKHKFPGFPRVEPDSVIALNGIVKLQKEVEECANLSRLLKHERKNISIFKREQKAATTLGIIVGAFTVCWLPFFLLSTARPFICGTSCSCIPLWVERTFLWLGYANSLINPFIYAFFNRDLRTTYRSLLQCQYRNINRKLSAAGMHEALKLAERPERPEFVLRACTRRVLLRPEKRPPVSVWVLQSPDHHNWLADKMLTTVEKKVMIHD

Mus musculus [17] = experiment: Anticonvulsant activity in po dosed 6-Hz induced seizure mouse model assessed as restoration of normal activity within 10 secs from stimulation at 44 mA; format: functional
[18] = molecular target: B2 bradykinin receptor (Homo sapiens) (UniProt P30411); experiment: Displacement of [3H]bradykinin from human recombinant bradykinin B2 receptor expressed in CHO cells at 100 uM measured after 60 mins by scintillation counting method relative to control; format: cell-based
Chain of B2 bradykinin receptor (Homo sapiens) (P30411 whole entry): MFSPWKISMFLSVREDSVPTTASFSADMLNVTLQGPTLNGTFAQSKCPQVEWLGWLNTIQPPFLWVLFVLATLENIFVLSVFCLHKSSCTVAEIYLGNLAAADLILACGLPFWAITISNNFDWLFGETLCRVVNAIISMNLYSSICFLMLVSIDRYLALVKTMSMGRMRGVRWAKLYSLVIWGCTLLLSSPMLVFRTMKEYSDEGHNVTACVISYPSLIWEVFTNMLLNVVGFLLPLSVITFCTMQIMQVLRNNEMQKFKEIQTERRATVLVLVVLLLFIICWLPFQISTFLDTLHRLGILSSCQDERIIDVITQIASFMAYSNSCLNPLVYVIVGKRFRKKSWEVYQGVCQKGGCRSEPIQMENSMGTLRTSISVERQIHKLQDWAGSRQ

With `CCC(CO)NC(=O)/C=C/c1ccc(Cl)cc1` (configuration not stated) the inhibition [1] was -0.4%, the Activity (Mus musculus [2]) was “Active” and the Activity (Mus musculus [3]) was “Non-Toxic”. The Activity (Mus musculus [4]) was “Active”, the Time (Mus musculus [5]) was 0.25 h and the selectivity ratio [6] was 2.12. The ED50 (Rattus norvegicus [7]) was 46.8 mg/kg, the inhibition [8] was -2.9% and the inhibition (Rattus norvegicus [9]) was 8.7%. For the same molecule, the inhibition [10] was -1.2%, the inhibition [11] was 27.1% and the inhibition [12] was 5.8%. For the same molecule, the inhibition [13] was 41.9%, the inhibition [14] was 2.3% and the inhibition [15] was 58.2%. The inhibition [16] was 16.2%.

In the case of `Cc1ccccc1/C=C/C(=O)N[C@@H](C)CO`, the inhibition [1] is reported as 1.3%, the Activity (Mus musculus [2]) is reported as “Active” and the Activity (Mus musculus [3]) is reported as “Non-Toxic”. For the same molecule, the Activity (Mus musculus [4]) was “Active”, the Time (Mus musculus [5]) was 0.5 h and the ED50 (Mus musculus [17]) was 74.1 mg/kg. It also gave a selectivity ratio [6] of 3.55, an ED50 (Rattus norvegicus [7]) of 25.8 mg/kg and an inhibition [8] of -2.8%. The inhibition [18] was -8.3%, the inhibition (Rattus norvegicus [9]) was 13.2% and the inhibition [10] was 1.4%. It also gave an inhibition [11] of 21.9%, an inhibition [12] of -0.4% and an inhibition [13] of 14.8%. The inhibition [14] was -5%, the inhibition [15] was 79.8% and the inhibition [16] was 26.6%.

In the case of `CC(O)CNC(=O)/C=C/c1ccc(Cl)cc1` (configuration not stated), the inhibition [1] is reported as 10%, the Activity (Mus musculus [2]) is reported as “Active” and the Activity (Mus musculus [3]) is reported as “Non-Toxic”. For the same molecule, the Activity (Mus musculus [4]) was “Active”, the Time (Mus musculus [5]) was 0.25 h and the ED50 (Mus musculus [17]) was 120 mg/kg. It also gave a selectivity ratio [6] of 3.51, an ED50 (Rattus norvegicus [7]) of 77.3 mg/kg and an inhibition [8] of 0.7%. For the same molecule, the inhibition [18] was -1%, the inhibition (Rattus norvegicus [9]) was -1.3% and the inhibition [10] was 6.6%. For the same molecule, the inhibition [11] was 27%, the inhibition [12] was 5.2% and the inhibition [13] was 31.6%. The inhibition [14] was 1%, the inhibition [15] was 41.6% and the inhibition [16] was 43.5%.
